In ChEMBL document CHEMBL1153262, “Polyketide synthase thioesterases catalyze rapid hydrolysis of peptidyl thioesters” (Bioorg Med Chem Lett, 2009):

Assays:
[1] = Activity at PKS TEs assessed as hydrolysis of pimaricin
[2] = Activity at PKS TEs assessed as hydrolysis of epothilone
[3] = Ratio of kcat/km of PKS TEs assessed as hydrolysis of epothilone
[4] = Ratio of kcat/km of PKS TEs assessed as hydrolysis of pimaricin
[5] = Ratio of kcat/km of PKS TEs assessed as hydrolysis of 6-deoxyerythronolide-B

| SMILES | Km [1] [µM] | kcat [1] [min⁻¹] | Km [2] [µM] | kcat [2] [min⁻¹] | kcat/Km [3] [M⁻¹ s⁻¹] | kcat/Km [4] [M⁻¹ s⁻¹] | kcat/Km [5] [M⁻¹ s⁻¹] |
| --- | --- | --- | --- | --- | --- | --- | --- |
| CC(=O)NCCSC(=O)CCCCCCNC(=O)OC(C)(C)C | 800 | 1.2 | 400 | 1.82 | 75.1 | 23.3 | 1.47 |
| CC(=O)NCCSC(=O)CCNC(=O)c1ccccc1 |  |  |  |  | 24.2 | 1.14 | 7.75 |
| CC(=O)NCCSC(=O)CNC(=O)OC(C)(C)C |  |  |  |  | 145 | 1.29 | 7 |
| CC(=O)NCCSC(=O)[C@H](C)NC(=O)OC(C)(C)C |  |  |  |  | 91.3 |  | 0.88 |
| CC(=O)NCCSC(=O)[C@@H](C)NC(=O)OC(C)(C)C |  |  |  |  | 12.5 |  | 0.5 |
| CC(=O)NCCSC(=O)CNC(=O)[C@H](C)NC(=O)OC(C)(C)C |  |  | 2900 | 19.2 | 110 |  | 0.39 |
| CC(=O)NCCSC(=O)CNC(=O)[C@@H](C)NC(=O)OC(C)(C)C |  |  | 1300 | 3.1 | 38.8 |  | 0.8 |
